Laboratory results from patent US20100160214A1 (SERENITY PHARMACEUTICALS CORPORATION, priority 2008, published 2010).
Read-outs that look alike come from different tables or passages of the source.

What was measured:
[1] = in vivo, cited from earlier work
clinical = conditions: human, in vivo; for CL/F / bioavailability / Tmax / half-life: both; for bioavailability: F % (fraction bioavailable)
Experimental: The open-label preliminary study of the effects and pharmacokinetics of the prototype composition was conducted with six male and six female healthy, water loaded, non-smoking volunteer subjects, following the protocol described generally below. In summary, each subject was dosed up to four times over a period of one week with dosing administered every other day. […] All subjects were screened prior to the first treatment, including evaluations of medical history, complete physical exam including nasopharyngeal exam, serum chemistry including serum osmolality, urinalysis including urine osmolality.
On day one all subjects were asked to have his/her morning void prior to breakfast, and thereafter subjects started the water loading process. […] To achieve a steady state diuresis, the subjects were directed to drink a volume of water corresponding to at least 1.5% and up to 3% of body weight. The water loading process started about two hours prior to the dosing of the first subject. Subjects were asked to void every 20 minutes. To ensure continuous water loaded state, the subjects replaced their urinary output loss with an equivalent amount of fluid. Insensible loss was not measured or replaced. When the urinary output rate exceeded 10 ml/min in two consecutive measurements (defined as water loaded state) in the subjects, dosing began. Subjects were maintained in the water loaded state with equivalent fluid intake versus fluid loss.
Blood sampling for pharmacokinetic determinations was performed at 1, 1.5, 2, 3, 4 and 6 hours post dose. Two seven ml blood samples were collected at each time point. […] 3.2 (Pharsight Corporation, USA). A plasma concentration value below the limit of quantitation (“LOQ”) followed by values above the limit was set at ‘LOQ/2’ for the analysis and for the descriptive statistics on concentrations. Values below LOQ not followed by values above the LOQ were excluded from the analysis, and set to zero in the descriptive statistics on concentrations.
(§1) Other than the dose level, all procedures were the same as those described for day one.
as §1
Other than the dosing paradigm, all procedures were the same as described on day one.
Assay values below the level of detection that occurred between two non-zero concentrations were considered to be “missing” for purposes of calculating the AUC. […] Accordingly, an average terminal half-life (Avg T1/2) was calculated for each subject that included a treatment with evaluable half-lives in that subject. […] The AUC could be calculated for each treatment and subject using the calculated average T1/2 value.
The AUCall is the AUC calculated using the trapezoidal rule that assumes that the concentration declines to 0.00 at the next sample collection time following the last quantifiable concentration. In the cases where concentrations had not declined to below the limit of detection by the time of the last scheduled sample, AUCall was the same as AUCtlqc.
The AUCtlqc is the AUC as calculated to the Time of the Last Quantifiable Concentration. This value is extrapolated using the ratio of the last quantifiable concentration and the terminal elimination rate to give the AUC∞. Therefore AUC∞ is always larger than the AUCtlqc. AUCall will also always be equal to or greater than AUCtlqc, but may be larger or smaller than AUC∞.

## NC(=O)CC[C@@H]1NC(=O)[C@H](Cc2ccccc2)NC(=O)[C@H](Cc2ccc(O)cc2)NC(=O)CCSSC[C@@H](C(=O)N2CCC[C@H]2C(=O)N[C@H](CCCN=C(N)N)C(=O)NCC(N)=O)NC(=O)[C@H](CC(N)=O)NC1=O [desmopressin, 1-desamino-8-D-arginine vasopressin]
[1]; human, inhaled or intranasal
  bioavailability: 3-5%
[1]; human
  half life: ≥ 1.5 h
[1]; inhaled or intranasal, 20 ug
  range of Cmax: 6-10 fold
[1]; po
  bioavailability: far less than one percent
clinical
  CL/F: 383 mL/min
  bioavailability: ~55%
clinical; sc
  CL/F: 233 mL/min
  Tmax: 0.88 ± 0.349 h
  bioavailability: 100%
  AUC∞* (modified AUC∞ using average T1/2): 0.00785 ± 0.00421 ng·h/mL
clinical; sc, Avg T1/2
  half-life: 1.68 ± 0.66 h
clinical; sc, T1/2
  half-life: 2.09 ± 0.32 h
clinical; topical or ocular
  Tmax: 0.8 ± 0.406 h
  AUC∞* (modified AUC∞ using average T1/2): 0.00446 ± 0.00309 ng·h/mL
clinical; topical or ocular, Avg T1/2
  half-life: 1.2 ± 0.42 h
clinical; topical or ocular, T1/2
  half-life: 1.39 ± 0.61 h
